Results published in US20100331338A1, “Glucokinase Activators” (Merck Patent GMBH, priority 2008, published 2010).
pEC50: −log10 of the molar value.

Molecular target: T1, hGK (Homo sapiens, UniProt P35557)
T1 sequence (P35557 1-465): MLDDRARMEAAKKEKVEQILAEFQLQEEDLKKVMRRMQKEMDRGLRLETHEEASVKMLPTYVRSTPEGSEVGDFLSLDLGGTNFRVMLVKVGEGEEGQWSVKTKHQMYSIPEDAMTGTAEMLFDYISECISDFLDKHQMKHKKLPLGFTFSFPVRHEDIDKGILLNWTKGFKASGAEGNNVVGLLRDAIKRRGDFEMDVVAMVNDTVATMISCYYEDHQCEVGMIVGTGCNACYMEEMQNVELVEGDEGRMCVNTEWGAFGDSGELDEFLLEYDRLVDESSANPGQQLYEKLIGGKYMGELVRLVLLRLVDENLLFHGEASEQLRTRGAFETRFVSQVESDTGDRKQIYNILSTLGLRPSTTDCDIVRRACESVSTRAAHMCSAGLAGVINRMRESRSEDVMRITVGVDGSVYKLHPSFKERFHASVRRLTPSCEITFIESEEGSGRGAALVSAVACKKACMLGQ
Assay: Glucokinase Activation Screening Assay (coupled enzyme assay with PK/LDH)
Format: biochemical
Details: 2 mM glucose; for hGK fold activation at 30 μM: fold activation at 30 μM compound
Procedure: Glucokinase Activation Screening Assay
GK activity (human or rat enzyme) is measured by a coupled enzyme assay using pyruvate kinase (PK) and lactate dehydrogenase (LDH) as coupling enzymes. GK activity is calculated from the decline in NADH monitored photometrically with a microtiter plate (MTP) reader at 340 nm.
For screening purposes, the GK assay is routinely run in a 384-MTP format, in a total volume of 33 μl/well. 10 μl of the ATP-regeneration solution (in HEPES-buffer*, pH 7.0, 6.73 U/ml pyruvate kinase, 6.8 U/ml lactate dehydrogenase) and 10 μl of the glucokinase-/glucose solution (15 μg/ml, 6.6 mM glucose in HEPES-buffer*, pH 7.0; the concentration of the glucose stock-solution was 660 mM in Millipore H2O) were mixed together with […] of a 10% DMSO solution (in HEPES-buffer*, pH 7.0) containing 3.3-fold the amounts of the compounds to achieve final compound concentrations in the range between 1 nM to 30 μM (sometimes 300 μM) in the assay solution (s. below). The solutions were mixed for 5 sec, and after a centrifugation at 243×g for 5 min, the solutions were preincubated for 25 min at room temperature.
The reaction was started by the addition of 10 μl of the NADH-/ATP-solution (4.29 mM NADH, 4.95 mM ATP, in HEPES-buffer*). The MTP was shaken for 5 sec., and then, the absorbance at 340 nm was monitored continuously in a MTP-reader (TECAN Spectro fluor plus) for the next 27 min (with a MTP-cycling time of 199 sec.). The final concentrations of the various components were as follows: 49.5 mM Hepes, pH 7.0, 1.49 mM PEP,1,3 mM NADH, 49.5 mM KCl, 4.96 mM MgCl2, 1.5 mM Mg-ATP, 1.98 mM DTT, 2.04 U/ml pyruvate kinase, 2.06 U/ml lactate-dehydrogenase, 0.91% DMSO, 0.15 μg/well glucokinase, and test compounds in the range between 1 nM and 300 μM.
The change in the optical density (ΔOD340 nm) in the presence of the compound was expressed relative to the ΔOD340 nm, ctrl of the control incubation (in the presence of 2 mM glucose and 0.91% DMSO), taking into account the optical density of the blank sample (incubation in the absence of 2 mM glucose). For the determination of the half maximal effective concentration (EC50), the %-Ctrl-values were plotted in a semi-logarithmic graph against the conc. of the compound of interest. The data points were fitted to a sigmoid curve function (f(x)=((%-Ctrlmax%-Ctrlmin)/(1−(EC50/x**^n(Hill)))+%-Ctrlmin)) by a non-linear regression analysis.
* Hepes-buffer (50 mM Hepes, pH 7.0, 5 mM MgCl2, 50 mM KCl, 1.5 mM PEP, 0.1% BSA). DTT was added to the Hepes-buffer from a 200× stock solution (in Millipore H2O) freshly each day. The final concentration of DTT in the Hepes-buffer is 2 mM.

SMILES | pEC50 | hGK fold activation at 30 μM
Cc1sc(C(=O)Nc2nccs2)cc1S(=O)(=O)N(C)C [Example 50, 4-Dimethylsulfamoyl-5-methyl-thiophene-2-carboxylic acid thiazol-2-ylamide] | 5.41 | 2.6
O=C(Nc1nccs1)c1csc([N+](=O)[O-])c1 [Example 20, 5-Nitro-thiophene-3-carboxylic acid thiazol-2-ylamide] | – | 1.4
O=C(Nc1nccs1)c1csc2c1CCCC2 [Example 7, 4,5,6,7-Tetrahydro-benzo[b]thiophene-3-carboxylic acid thiazol-2-ylamide] | – | 1.2
CCCc1cc(C(=O)Nc2nncs2)cs1 [Example 24, 5-Propyl-thiophene-3-carboxylic acid[1,3,4]thiadiazol-2-ylamide] | – | 2.4
CCCc1cc(C(=O)Nc2ccccn2)cs1 [Example 41, 5-Propyl-thiophene-3-carboxylic acid pyridin-2-ylamide] | – | 2.5
Cc1csc(C(=O)Nc2nccs2)c1 [Example 4, 4-Methyl-thiophene-2-carboxylic acid thiazol-2-ylamide] | – | 3.4
COCc1csc(C(=O)Nc2cc(C)n(CC(=O)O)n2)c1 [Example 43, {3-[(4-Methoxymethyl-thiophene-2-carbonyl)-amino]-5-methyl-pyrazol-1-yl}-acetic acid] | – | 1.2
CCCc1cc(C(=O)Nc2ccc(F)cn2)cs1 [Example 27, 5-Propyl-thiophene-3-carboxylic acid(5-fluoro-pyridin-2-yl)-amide] | – | 2.1
Cc1ccc(C(=O)Nc2nccs2)s1 [Example 26, 5-Methyl-thiophene-2-carboxylic acid thiazol-2-ylamide] | – | 1.5
CCCc1cc(C(=O)Nc2nccs2)cs1 [Example 53, 5-Propyl-thiophene-3-carboxylic acid thiazol-2-ylamide] | 5.00 | 5.6
CCCc1cc(C(=O)Nc2nc3ccccc3[nH]2)cs1 [Example 21, 5-Propyl-thiophene-3-carboxylic acid(1H-benzoimidazol-2-yl)-amide] | – | 2.4
CCCc1cc(C(=O)Nc2ccncn2)cs1 [Example 36, 5-Propyl-thiophene-3-carboxylic acid pyrimidin-4-ylamide] | – | 2.7
CCCc1cc(C(=O)Nc2ncc[nH]2)cs1 [Example 14, 5-Propyl-thiophene-3-carboxylic acid(1H-imidazol-2-yl)-amide] | – | 2.1
CCCc1cc(C(=O)Nc2ccon2)cs1 [Example 28, 5-Propyl-thiophene-3-carboxylic acid isoxazol-3-ylamide] | – | 2
CS(=O)(=O)c1csc(C(=O)Nc2nccs2)c1Cl [Example 18, 3-Chloro-4-methanesulfonyl-thiophene-2-carboxylic acid thiazol-2-ylamide] | – | 1.2
CCCc1sc(C(=O)Nc2nccs2)cc1CC [Example 33, 4-Ethyl-5-propyl-thiophene-2-carboxylic acid thiazol-2-ylamide] | – | 9.4
CCCc1cc(C(=O)Nc2cc(C)ccn2)cs1 [Example 39, 5-Propyl-thiophene-3-carboxylic acid(4-methyl-pyridin-2-yl)-amide] | – | 2.4
CCCc1cc(C(=O)Nc2cc(Cl)ccn2)cs1 [Example 31, 5-Propyl-thiophene-3-carboxylic acid(4-chloro-pyridin-2-yl)-amide] | – | 2.7

SMILES | pEC50 | hGK fold activation at 30 μM
Cc1sc(C(=O)Nc2nccs2)cc1S(=O)(=O)NCc1ccccc1 [Example 49, 4-Benzylsulfamoyl-5-methyl-thiophene-2-carboxylic acid thiazol-2-ylamide] | – | 1.3
O=C(Nc1nccs1)c1cccs1 [Example 3, Thiophene-2-carboxylic acid thiazol-2-ylamide] | – | 1.3
CCCc1cc(C(=O)Nc2ccn(C)n2)cs1 [Example 29, 5-Propyl-thiophene-3-carboxylic acid(1-methyl-1H-pyrazol-3-yl)-amide] | – | 5.5
CCCc1cc(C(=O)Nc2nc(CC(=O)O)cs2)cs1 [Example 46, {2-[(5-Propyl-thiophene-3-carbonyl)-amino]-thiazol-4-yl}-acetic acid] | – | 2.1
COCc1csc(C(=O)Nc2cc(C)n(Cc3ccccn3)n2)c1 [Example 17, 4-Methoxymethyl-thiophene-2-carboxylic acid(5-methyl-1-pyridin-2-ylmethyl-1H-pyrazol-3-yl)-amide] | – | 1.8
CCCc1cc(C(=O)Nc2nc(C)c(C(=O)OCC)s2)cs1 [Example 13, 4-Methyl-2-[(5-propyl-thiophene-3-carbonyl)-amino]-thiazole-5-carboxylic acid ethyl ester] | – | 1.5
O=C(Nc1nccs1)c1ccsc1 [Example 2, Thiophene-3-carboxylic acid thiazol-2-ylamide] | – | 1.3
COCc1csc(C(=O)Nc2ccn(CC(=O)O)n2)c1 [Example 44, {3-[(4-Methoxymethyl-thiophene-2-carbonyl)-amino]-pyrazol-1-yl}-acetic acid] | – | 1.7
O=C(Nc1nccs1)c1cc(-c2ccc(Cl)cc2)cs1 [Example 19, 4-(4-Chloro-phenyl)-thiophene-2-carboxylic acid thiazol-2-ylamide] | – | 1.5
O=C(Nc1nccs1)c1csc2ccccc12 [Example 6, Benzo[b]thiophene-3-carboxylic acid thiazol-2-ylamide] | – | 1.2
CC1CCc2c(C(=O)Nc3nccs3)csc2C1 (stereo not shown) [Example 8, 6-Methyl-4,5,6,7-tetrahydro-benzo[b]thiophene-3-carboxylic acid thiazol-2-ylamide] | – | 1.6
CCCc1cc(C(=O)Nc2nc(CC(=O)OCC)cs2)cs1 [Example 11, {2-[(5-Propyl-thiophene-3-carbonyl)-amino]thiazol-4-yl}-acetic acid ethyl ester] | 4.82 | 4.9
CCCc1cc(C(=O)Nc2cc[nH]n2)cs1 [Example 38, 5-Propyl-thiophene-3-carboxylic acid(1H-pyrazol-3-yl)-amide] | – | 2.7
COCc1csc(C(=O)Nc2ccn(Cc3ccccn3)n2)c1 [Example 15, 4-Methoxymethyl-thiophene-2-carboxylic acid(1-pyridin-2-ylmethyl-1H-pyrazol-3-yl)-amide] | – | 3
CCOC(=O)Cn1ccc(NC(=O)c2cc(COC)cs2)n1 [Example 40, {3-[(4-Methoxymethyl-thiophene-2-carbonyl)-amino]-pyrazol-1-yl}-acetic acid ethyl ester] | 5.38 | 2.6
CCN(CC)S(=O)(=O)c1cc(C(=O)Nc2nccs2)sc1C [Example 48, 4-Diethylsulfamoyl-5-methyl-thiophene-2-carboxylic acid thiazol-2-ylamide] | 5.41 | 6.4
CCCc1cc(C(=O)Nc2ccn(Cc3ccccn3)n2)cs1 [Example 37, 5-Propyl-thiophene-3-carboxylic acid(1-pyridin-2-ylmethyl-1H-pyrazol-3-yl)-amide] | – | 3.6
